Test [1] deals with Candida albicans ATCC 10231. Kind of test: Fungicidal activity, serial dilution technique. The following applies: average of three ± SD, - means non-active. Type of test: cell-based. A digest of the protocol:
(§1)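 Serial dilution in Mueller–Hinton Broth 2 with an inoculum of 3.0 × 10^5 cfu/mL, 37 °C, read every 24 h for 5 days; three repeats. MIC is the lowest concentration inhibiting visible growth of the test organism.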

In test [2] the test system is Trichophyton mentagrophytes var. gypseum 1773. Put plainly: Fungicidal activity, serial dilution technique. Format: cell-based. The conditions noted are these: Tm; average of three ± SD; - means non-active. A digest of the protocol:
as §1

Test [3] has as its system methicillin-resistant S. aureus MRSA-2. Kind of test: Antimicrobial activity, serial dilution technique in Mueller–Hinton Broth 2. Type of test: cell-based, Staphylococcus aureus. The following applies: - means non-active. The method in brief: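 Antimicrobial activity against methicillin-susceptible Staphylococcus aureus MRSA-2, a beta-lactam-resistant clinical isolate from a sinusitis patient at the Republican Clinical Hospital (Kazan), was assessed by serial dilution in Mueller–Hinton Broth 2. The inoculum was 3.0 × 10^5 cfu/mL. Cultures were incubated at 37 °C and read every 24 h for 5 days, in three repeat experiments.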

Test [4] deals with methicillin-resistant S. aureus MRSA-1. The test is described as above. Type of test: cell-based, Staphylococcus aureus. The following applies: - means non-active. The method in brief: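 Antimicrobial activity against methicillin-susceptible Staphylococcus aureus MRSA-1, a hospital isolate from a chronic tonsillitis patient that is resistant to fluoroquinolones and beta-lactams, was determined by serial dilution in Mueller–Hinton Broth 2. The bacterial load was 3.0 × 10^5 cfu/mL, incubation was at 37 °C, and growth was recorded every 24 h for 5 days.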

The test system of test [5] is Escherichia coli ATCC 25922. Described as above. Type of test: cell-based. The conditions noted are these: Escherichia coli, ATCC25922, Ec; average of three ± SD; - means non-active; read-out: Minimum Bactericidal and Fungicidal Concentration (MBC, MFC), Ec.

These results are taken from paper PMC8744835, “Sterically Hindered Quaternary Phosphonium Salts (QPSs): Antimicrobial Activity and Hemolytic and Cytotoxic Properties” (International Journal of Molecular Sciences, 2021).

Take `CCCCCCCCCCCC[P+](C(C)(C)C)(C(C)(C)C)C(C)(C)C` [Compound 12a, tri-tert-butyl(n-dodecyl)phosphonium]: in test [1] (Ca), the “Minimum Bactericidal and Fungicidal Concentration (MBC, MFC), Ca” value turned out to be 31.3 ± 2.7 µg/mL. The MIC turned out to be 15.6 ± 1.4 µg/mL in test [1] (Candida albicans, ATCC10231, Ca, read-out: Minimum Inhibitory Concentration (MIC), Ca) and 0.5 ± 0.03 µg/mL in test [3] (Staphylococcus aureus, MRSA, MRSA-2 (resistant to beta-lactams), read-out: Minimum Inhibitory Concentration (MIC), MRSA-2). Besides, in test [2], the “Minimum Bactericidal and Fungicidal Concentration (MBC, MFC), Tm” value was determined as 15.6 ± 1.3 µg/mL. The “Minimum Inhibitory Concentration (MIC), Tm” value in test [2] is listed as 15.6 ± 1.2 µg/mL. Besides, the “Minimum Bactericidal and Fungicidal Concentration (MBC, MFC), MRSA-2” value in test [3] (MRSA-2) is recorded as 7.8 ± 0.6 µg/mL. Also, the “Minimum Inhibitory Concentration (MIC), MRSA-1” value in test [4] (MRSA-1 (resistant to fluoroquinolones and beta-lactams)) is 0.5 ± 0.03 µg/mL. For the same compound, the MBC was 0.5 ± 0.04 µg/mL in test [4] (Staphylococcus aureus, MRSA, MRSA-1, read-out: Minimum Bactericidal and Fungicidal Concentration (MBC, MFC), MRSA-1); 7.8 ± 0.7 µg/mL in test [5].
